Activity calls are given as the source filed them. The calls are words filed in the database; no cut-off is given here.
Key:
[1] = Permeability from apical to basolateral side of human Caco-2 cells; format: ADME, cell-based; conditions: read-out: permeability
[2] = Permeability from basolateral to apical side of human Caco-2 cells; format: ADME, cell-based; conditions: read-out: permeability
[3] = Clearance in Beagle dog at 1 mg/kg, iv and 5 mg/kg, po; format: ADME, organism-based, Canis lupus familiaris; conditions: in vivo
[4] = Plasma concentration in Wistar rat at 10 mg/kg, po after 1 hr; format: ADME, organism-based; set-up: dose 10 mg/kg, route oral; conditions: read-out: Drug uptake
Rattus norvegicus [5] = assay: Increase of histamine release in rat frontal cortex at 0.3 to 3 mg/kg, sc measured up to 300 mins; format: functional, organism-based
Rattus norvegicus [6] = assay: Increase of wake duration in rat at 10 mg/kg, s.c.
[7] = Volume of distribution at steady state in BALB/c mouse at 1 mg/kg, iv and 10 mg/kg, po; format: ADME, organism-based; conditions: in vivo, read-out: Vdss
Cytochrome P450 2D6 = Cytochrome P450 2D6 (Homo sapiens, UniProt P10635); assay: Inhibition of CYP2D6 at 10 uM; format: ADME
Sequence of Cytochrome P450 2D6 (P10635 whole entry): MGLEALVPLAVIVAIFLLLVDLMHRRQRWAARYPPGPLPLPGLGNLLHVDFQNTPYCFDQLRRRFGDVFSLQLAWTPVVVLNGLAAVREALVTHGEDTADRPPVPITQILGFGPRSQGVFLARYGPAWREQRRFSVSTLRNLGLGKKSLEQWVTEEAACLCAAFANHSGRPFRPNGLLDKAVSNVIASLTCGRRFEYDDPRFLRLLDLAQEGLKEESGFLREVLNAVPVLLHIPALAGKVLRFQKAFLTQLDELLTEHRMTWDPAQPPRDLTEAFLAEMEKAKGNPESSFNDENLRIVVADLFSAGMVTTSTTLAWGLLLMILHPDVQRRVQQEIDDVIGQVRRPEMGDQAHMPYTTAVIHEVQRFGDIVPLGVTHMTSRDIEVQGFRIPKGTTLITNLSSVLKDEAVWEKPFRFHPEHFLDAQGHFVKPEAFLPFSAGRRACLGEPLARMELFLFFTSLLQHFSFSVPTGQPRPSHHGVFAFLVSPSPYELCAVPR

[8] = target: T1, Voltage-gated inwardly rectifying potassium channel KCNH2 (Homo sapiens, UniProt Q12809); assay: Displacement of radiolabeled astemizole from human ERG
T1 sequence (Q12809 whole entry): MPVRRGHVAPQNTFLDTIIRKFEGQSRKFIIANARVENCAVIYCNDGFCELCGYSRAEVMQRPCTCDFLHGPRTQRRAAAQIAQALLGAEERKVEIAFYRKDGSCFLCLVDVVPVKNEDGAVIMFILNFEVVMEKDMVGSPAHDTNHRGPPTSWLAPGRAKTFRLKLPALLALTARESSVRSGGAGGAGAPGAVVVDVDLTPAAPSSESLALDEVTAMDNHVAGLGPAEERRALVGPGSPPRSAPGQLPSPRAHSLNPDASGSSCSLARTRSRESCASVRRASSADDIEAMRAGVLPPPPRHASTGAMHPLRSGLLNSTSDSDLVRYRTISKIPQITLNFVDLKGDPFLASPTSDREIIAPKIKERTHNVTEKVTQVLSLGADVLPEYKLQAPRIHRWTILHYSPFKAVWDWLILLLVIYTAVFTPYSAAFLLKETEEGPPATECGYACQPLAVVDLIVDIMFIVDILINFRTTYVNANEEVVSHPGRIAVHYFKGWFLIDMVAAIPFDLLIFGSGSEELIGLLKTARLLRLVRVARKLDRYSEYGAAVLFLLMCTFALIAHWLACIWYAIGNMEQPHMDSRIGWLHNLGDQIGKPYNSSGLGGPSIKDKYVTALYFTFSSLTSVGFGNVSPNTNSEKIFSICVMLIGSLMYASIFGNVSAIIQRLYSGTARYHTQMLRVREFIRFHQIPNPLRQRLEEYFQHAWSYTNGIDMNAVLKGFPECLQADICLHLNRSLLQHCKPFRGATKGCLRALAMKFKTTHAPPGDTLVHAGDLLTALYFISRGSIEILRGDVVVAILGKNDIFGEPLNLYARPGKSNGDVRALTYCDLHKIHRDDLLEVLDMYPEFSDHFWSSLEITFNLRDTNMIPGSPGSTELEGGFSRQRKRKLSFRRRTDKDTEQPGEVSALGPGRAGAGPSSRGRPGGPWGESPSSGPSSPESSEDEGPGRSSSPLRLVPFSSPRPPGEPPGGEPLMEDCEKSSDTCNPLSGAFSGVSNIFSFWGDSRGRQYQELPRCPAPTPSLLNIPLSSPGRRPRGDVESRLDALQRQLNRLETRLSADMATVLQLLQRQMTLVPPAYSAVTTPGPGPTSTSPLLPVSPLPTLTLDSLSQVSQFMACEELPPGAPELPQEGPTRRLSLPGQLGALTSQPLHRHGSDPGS

Brain = assay: Drug level in rat brain at 3 mg/kg, sc; format: ADME, organism-based; set-up: dose 3 mg/kg, route subcutaneous; conditions: in vivo, read-out: Drug uptake
[9] = Bioavailability in Sprague-Dawley rat at 1 mg/kg, iv and 10 mg/kg, po; format: ADME, organism-based; conditions: in vivo
[10] = Half life in Beagle dog at 1 mg/kg, iv and 5 mg/kg, po; format: ADME, organism-based, Canis lupus familiaris; conditions: in vivo
[11] = Volume of distribution at steady state in Sprague-Dawley rat at 1 mg/kg, iv and 10 mg/kg, po; format: ADME, organism-based; conditions: in vivo, read-out: Vdss
[12] = target: T1, Voltage-gated inwardly rectifying potassium channel KCNH2; assay: Inhibition of human ERG by patch clamp technique
[13] = Plasma concentration in Wistar rat at 3 mg/kg, po after 30 mins; format: ADME, organism-based; set-up: dose 3 mg/kg, route oral; conditions: read-out: Drug uptake
[14] = Metabolic stability in human liver microsomes assessed as compound remaining after 30 mins; format: ADME, Microsome; conditions: read-out: Stability
[15] = Bioavailability in Beagle dog at 1 mg/kg, iv and 5 mg/kg, po; format: ADME, organism-based, Canis lupus familiaris; conditions: in vivo
hERG (KCNH2) = hERG (KCNH2) (Homo sapiens, UniProt Q12809); assay: Displacement of radiolabeled astemizole from human ERG at 10 uM; conditions: probe radiolabeled astemizole
Sequence of hERG (KCNH2) (Q12809 whole entry): as above

[16] = Metabolic stability in rat liver microsomes assessed as compound remaining after 30 mins; format: ADME, Microsome; conditions: read-out: Stability
Rattus norvegicus [17] = assay: Ex vivo receptor occupancy of histamine H3 receptor in Wistar rat brain at 10 mg/kg, po after 1 hr by autoradiography; format: functional
Rattus norvegicus [18] = assay: Ex vivo receptor occupancy of histamine H3 receptor in Wistar rat brain at 3 mg/kg, po after 30 mins by [3H]R-alpha-methylhistamine bingind autoradiography; format: functional
Cytochrome P450 3A4 = Cytochrome P450 3A4 (Homo sapiens, UniProt P08684); assay: Inhibition of CYP3A4 at 10 uM; format: ADME
Sequence of Cytochrome P450 3A4 (P08684 whole entry): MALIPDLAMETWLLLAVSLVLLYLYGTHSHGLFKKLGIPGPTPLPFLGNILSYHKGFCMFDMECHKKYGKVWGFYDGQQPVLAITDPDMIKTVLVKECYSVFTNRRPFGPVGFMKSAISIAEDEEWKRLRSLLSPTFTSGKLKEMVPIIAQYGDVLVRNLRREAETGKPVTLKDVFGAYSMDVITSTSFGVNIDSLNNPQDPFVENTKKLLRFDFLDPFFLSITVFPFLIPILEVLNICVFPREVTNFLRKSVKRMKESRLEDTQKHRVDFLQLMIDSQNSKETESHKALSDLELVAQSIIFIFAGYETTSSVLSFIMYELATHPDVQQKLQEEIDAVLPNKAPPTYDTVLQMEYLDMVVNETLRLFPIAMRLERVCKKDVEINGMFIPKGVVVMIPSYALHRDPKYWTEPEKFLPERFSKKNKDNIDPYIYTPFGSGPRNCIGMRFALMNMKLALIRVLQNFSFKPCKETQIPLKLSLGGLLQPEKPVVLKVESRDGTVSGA

[19] = Volume of distribution at steady state in Beagle dog at 1 mg/kg, iv and 5 mg/kg, po; format: ADME, organism-based, Canis lupus familiaris; conditions: in vivo, read-out: Vdss
Cytochrome P450 2C9 = Cytochrome P450 2C9 (Homo sapiens, UniProt P11712); assay: Inhibition of CYP2C9 at 10 uM; format: ADME
Sequence of Cytochrome P450 2C9 (P11712 whole entry): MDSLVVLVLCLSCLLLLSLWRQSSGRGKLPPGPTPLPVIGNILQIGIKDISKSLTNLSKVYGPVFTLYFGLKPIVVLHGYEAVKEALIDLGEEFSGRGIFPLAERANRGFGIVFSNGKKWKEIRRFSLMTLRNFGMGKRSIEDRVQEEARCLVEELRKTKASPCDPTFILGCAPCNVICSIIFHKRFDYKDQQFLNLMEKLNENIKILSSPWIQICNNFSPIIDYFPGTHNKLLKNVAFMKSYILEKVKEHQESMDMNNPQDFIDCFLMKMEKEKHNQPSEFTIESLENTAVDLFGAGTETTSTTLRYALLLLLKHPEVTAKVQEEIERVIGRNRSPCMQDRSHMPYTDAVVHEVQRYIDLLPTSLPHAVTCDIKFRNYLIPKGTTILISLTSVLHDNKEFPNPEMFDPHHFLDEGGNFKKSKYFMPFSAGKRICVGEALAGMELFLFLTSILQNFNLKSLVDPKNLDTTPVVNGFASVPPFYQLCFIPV

[20] = Clearance in Sprague-Dawley rat at 1 mg/kg, iv and 10 mg/kg, po; format: ADME, organism-based; conditions: in vivo
[21] = Drug level in Wistar rat brain at 10 mg/kg, po after 1 hr; format: ADME, organism-based; set-up: dose 10 mg/kg, route oral; conditions: read-out: Drug uptake
[22] = Half life in Sprague-Dawley rat at 1 mg/kg, iv and 10 mg/kg, po; format: ADME, organism-based; conditions: in vivo
[23] = Solubility in simulated gastric fluid; format: physicochemical
[24] = Half life in BALB/c mouse at 1 mg/kg, iv and 10 mg/kg, po; format: ADME, organism-based; conditions: in vivo
[25] = Fraction unbound in rat plasma; format: ADME, cell-free
[26] = Solubility in water; format: physicochemical
[27] = Bioavailability in BALB/c mouse at 1 mg/kg, iv and 10 mg/kg, po; format: ADME, organism-based; conditions: in vivo
Rattus norvegicus [28] = assay: Increase of wake duration in rat at 10 mg/kg, sc; format: functional, organism-based; set-up: dose 10 mg/kg
Plasma = assay: Plasma concentration in rat at 3 mg/kg, sc; format: ADME, organism-based; set-up: dose 3 mg/kg, route subcutaneous; conditions: in vivo, read-out: Drug uptake
[29] = Clearance in BALB/c mouse at 1 mg/kg, iv and 10 mg/kg, po; format: ADME, organism-based; conditions: in vivo

Work on `O=C(c1ccc(Oc2ccc(F)cc2)nc1)N1CCCN(C2CCC2)CC1` [JNJ-39220675] yielded a Papp A→B [1] of 78 ×10⁻⁶ cm/s, a Papp B→A [2] of 36 ×10⁻⁶ cm/s and a clearance [3] of 35 mL/min/kg. The concentration at 1 h [4] was 1480 nM, the Activity (Rattus norvegicus [5]) was “Active” and the Activity (Rattus norvegicus [6]) was “Active”. For the same compound, the Vd [7] was 8.7 L/kg, the Activity (Cytochrome P450 2D6) was “Not Active” and the IC50 [8] was greater than 10 µM. It also gave a concentration (Brain) of 956 nM, a bioavailability [9] of 50% and a half-life [10] of 2.6 h. The Vd [11] was 3.5 L/kg, the IC50 [12] was 3.5 µM and the concentration at 0.5 h [13] was 150 ng/mL. The remaining at 0.5 h [14] was 87%, the bioavailability [15] was 28% and the inhibition at 10 µM (hERG (KCNH2)) was 0%. The remaining at 0.5 h [16] was 63%, the Activity (Rattus norvegicus [17]) was 94% and the Activity (Rattus norvegicus [18]) was 90%. The Activity (Cytochrome P450 3A4) was “Not Active”, the Vd [19] was 7.2 L/kg and the Activity (Cytochrome P450 2C9) was “Not Active”. For the same compound, the clearance [20] was 49 mL/min/kg, the concentration at 1 h [21] was 2650 nM and the half-life [22] was 1.2 h. For the same compound, the solubility [23] was greater than 5000 µg/mL, the half-life [24] was 1.1 h and the fraction unbound [25] was 0.15. For the same compound, the solubility [26] was greater than 5000 µg/mL, the bioavailability [27] was 28% and the Activity (Rattus norvegicus [28]) was “Active”. It also gave a concentration (Plasma) of 257 nM and a clearance [29] of 94 mL/min/kg.

Reference: ChEMBL document CHEMBL1177792, “Pre-clinical characterization of aryloxypyridine amides as histamine H3 receptor antagonists: identification of candidates for clinical development” (Bioorg Med Chem Lett, 2010)
